B1: vanadium chloroperoxidase (CiVCPO) (Curvularia inaequalis) (protein)
chain: MGSVTPIPLPKIDEPEEYNTNYILFWNHVGLELNRVTHTVGGPLTGPPLSARALGMLHLAIHDAYFSICPPTDFTTFLSPDTENAAYRLPSPNGANDARQAVAGAALKMLSSLYMKPVEQPNPNPGANISDNAYAQLGLVLDRSVLEAPGGVDRESASFMFGEDVADVFFALLNDPRGASQEGYHPTPGRYKFDDEPTHPVVLIPVDPNNPNGPKMPFRQYHAPFYGKTTKRFATQSEHFLADPPGLRSNADETAEYDDAVRVAIAMGGAQALNSTKRSPWQTAQGLYWAYDGSNLIGTPPRFYNQIVRRIAVTYKKEEDLANSEVNNADFARLFALVDVACTDAGIFSWKEKWEFEFWRPLSGVRDDGRPDHGDPFWLTLGAPATNTNDIPFKPPFPAYPSGHATFGGAVFQMVRRYYNGRVGTWKDDEPDNIAIDMMISEELNGVNRDLRQPYDPTAPIEDQPGIVRTRIVRHFDSAWELMFENAISRIFLGVHWRFDAAAARDILIPTTTKDVYAVDNNGATVFQNVEDIRYTTRGTREDPEGLFPIGGVPLGIEIADEIFNNGLKPTPPEIQPMPQETPVQKPVGQQPVKGMWEEEQAPVVKEAP

Experiments:
[1] = biological target: T1, vanadium chloroperoxidase (CiVCPO) (Curvularia inaequalis, UniProt P49053); assay: fluorescence binding titration (quenching), tight-binding fit, pH […]
T1 construct: gene CPO; His-trap purified CiVCPO expressed in E. coli BL21 DE3 (67 kDa)
T1 sequence (P49053 1-609): B1 chain

purified protein = substrate: c1ccc(-c2cc3ccccc3[nH]2)cc1; assay: purified protein; conditions: vanadate pocket near the protein surface: Pro47, His222, Gln220, Asp292, Gly293, Asp390, Phe393, Pro396, Phe397 (docking/MD only)

| Molecule | Kd [1] [nM] | Km (purified protein) [µM] |
| --- | --- | --- |
| Cn1c(-c2ccccc2)cc2ccccc21 [methylphenylindole] | 660 ± 50 |  |
| B1 |  | 1.52 |

From publication PMC10278073, “How Is Substrate Halogenation Triggered by the Vanadium Haloperoxidase from Curvularia inaequalis?” (ACS Catalysis, 2023)
